Source: US12643871B2, “Aryl formamide compound containing chiral sulfur oxide or salt thereof, preparation method, herbicidal composition and use thereof” (Qingdao Kingagroot Chemical Compound Co., Ltd., priority 2019, dated 2026)

What was measured:
Assay in all cases: Weeding effect in post-emergence stage
Type in all cases: in vivo
Conditions in all cases: 250 g/ha; 2 leaf stage; 15 days after application; fresh weight control rate
Abutilon theophrasti = system: Abutilon theophrasti
How it was run: (§1)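 Greenhouse pot-grown weeds were sprayed at the 2-leaf stage, 2 weeks after sowing, with compound in acetone/Tween 80 plus 1.5 L/ha methyl oleate EC, at 500, 250, 125, 60, 30 or 15 g/ha. Fresh-weight growth control was scored 15 days later on a 0–5 scale, mean of three repeats.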

Digitaria sanguinalis = system: Digitaria sanguinalis
How it was run: as §1

Setaria viridis = system: Setaria viridis
How it was run: as §1

Echinochloa crusgali = system: Echinochloa crusgali
How it was run: as §1

Amaranthus retroflexus = system: Amaranthus retroflexus
How it was run: as §1

| Structure (SMILES) | weeding effect in post-emergence stage, activity level (growth control rate), Abutilon theophrasti (Abutilon theophrasti) | weeding effect in post-emergence stage, activity level (growth control rate), Digitaria sanguinalis (Digitaria sanguinalis) | weeding effect in post-emergence stage, activity level (growth control rate), Setaria viridis (Setaria viridis) | weeding effect in post-emergence stage, activity level (growth control rate), Echinochloa crusgali (Echinochloa crusgali) | weeding effect in post-emergence stage, activity level (growth control rate), Amaranthus retroflexus (Amaranthus retroflexus) |
| --- | --- | --- | --- | --- | --- |
| Cc1nnc(NC(=O)c2ccc(C(F)(F)F)c([S+]([O-])C(F)(F)C(F)(F)C(F)(F)F)c2F)o1 (centres unmarked) [Compound 33] | 5 (Level 5: growth control rate is above 85%) | 5 (Level 5: growth control rate is above 85%) | 5 (Level 5: growth control rate is above 85%) | 5 (Level 5: growth control rate is above 85%) | 5 (Level 5: growth control rate is above 85%) |
| Cc1nnc(NC(=O)c2ccc(C(F)(F)F)c([S@+]([O-])CC(C)O)c2F)o1 (some centres unmarked) [Compound 56] | 5 (Level 5: growth control rate is above 85%) | 5 (Level 5: growth control rate is above 85%) | 5 (Level 5: growth control rate is above 85%) | 5 (Level 5: growth control rate is above 85%) | 5 (Level 5: growth control rate is above 85%) |
| Cc1nnc(NC(=O)c2ccc(C(F)(F)F)c([S@+]([O-])CC(C)Cl)c2F)o1 (some centres unmarked) [Compound 38] | 5 (Level 5: growth control rate is above 85%) | 5 (Level 5: growth control rate is above 85%) | 5 (Level 5: growth control rate is above 85%) | 5 (Level 5: growth control rate is above 85%) | 5 (Level 5: growth control rate is above 85%) |
| Cc1nnc(NC(=O)c2ccc(C(F)(F)F)c([S@+]([O-])CCC(F)(F)C(F)(F)F)c2F)o1 [Compound 35] | 5 (Level 5: growth control rate is above 85%) | 5 (Level 5: growth control rate is above 85%) | 5 (Level 5: growth control rate is above 85%) | 5 (Level 5: growth control rate is above 85%) | 5 (Level 5: growth control rate is above 85%) |
| Cc1nnc(NC(=O)c2ccc(C(F)(F)F)c([S@+]([O-])CCCC(F)(F)F)c2F)o1 [Compound 34] | 5 (Level 5: growth control rate is above 85%) | 5 (Level 5: growth control rate is above 85%) | 5 (Level 5: growth control rate is above 85%) | 5 (Level 5: growth control rate is above 85%) | 5 (Level 5: growth control rate is above 85%) |
| CCC[S@@+]([O-])c1c(C(F)(F)F)ccc(C(=O)Nc2nnc(C)o2)c1OCC [Compound 532] | 5 (Level 5: growth control rate is above 85%) | 5 (Level 5: growth control rate is above 85%) | 5 (Level 5: growth control rate is above 85%) | 5 (Level 5: growth control rate is above 85%) | 5 (Level 5: growth control rate is above 85%) |
| COc1c(C(=O)Nc2nnc(C)o2)ccc(C(F)(F)F)c1[S@@+]([O-])C(F)F [Compound 322] | 5 (Level 5: growth control rate is above 85%) | 5 (Level 5: growth control rate is above 85%) | 5 (Level 5: growth control rate is above 85%) | 5 (Level 5: growth control rate is above 85%) | 5 (Level 5: growth control rate is above 85%) |
| CCCOc1c(C(=O)Nc2nnc(C)o2)ccc(C(F)(F)F)c1[S@+]([O-])CCC [Compound 533] | 5 (Level 5: growth control rate is above 85%) | 5 (Level 5: growth control rate is above 85%) | 5 (Level 5: growth control rate is above 85%) | 5 (Level 5: growth control rate is above 85%) | 5 (Level 5: growth control rate is above 85%) |
| CCC[S@@+]([O-])c1c(C(F)(F)F)ccc(C(=O)Nc2nnco2)c1F [Compound 357] | 5 (Level 5: growth control rate is above 85%) | 5 (Level 5: growth control rate is above 85%) | 5 (Level 5: growth control rate is above 85%) | 5 (Level 5: growth control rate is above 85%) | 5 (Level 5: growth control rate is above 85%) |
| CSc1c(C(=O)Nc2nnc(C)o2)ccc(C(F)(F)F)c1[S@+]([O-])CCF [Compound 555] | 5 (Level 5: growth control rate is above 85%) | 5 (Level 5: growth control rate is above 85%) | 5 (Level 5: growth control rate is above 85%) | 5 (Level 5: growth control rate is above 85%) | 5 (Level 5: growth control rate is above 85%) |
| COc1c(C(=O)Nc2nnc(C)o2)ccc(C(F)(F)F)c1[S@+]([O-])CCCC(F)(F)F [Compound 326] | 5 (Level 5: growth control rate is above 85%) | 5 (Level 5: growth control rate is above 85%) | 5 (Level 5: growth control rate is above 85%) | 5 (Level 5: growth control rate is above 85%) | 5 (Level 5: growth control rate is above 85%) |
| CC(C)C[S@@+]([O-])c1c(C(F)(F)F)ccc(C(=O)Nc2nnco2)c1F [Compound 577] | 5 (Level 5: growth control rate is above 85%) | 5 (Level 5: growth control rate is above 85%) | 5 (Level 5: growth control rate is above 85%) | 5 (Level 5: growth control rate is above 85%) | 5 (Level 5: growth control rate is above 85%) |
| COCC[S@@+]([O-])c1c(C(F)(F)F)ccc(C(=O)Nc2nnco2)c1F [Compound 582] | 5 (Level 5: growth control rate is above 85%) | 5 (Level 5: growth control rate is above 85%) | 5 (Level 5: growth control rate is above 85%) | 5 (Level 5: growth control rate is above 85%) | 5 (Level 5: growth control rate is above 85%) |
| CCCCOc1c(C(=O)Nc2nnc(C)o2)ccc(C(F)(F)F)c1[S@+]([O-])CCC [Compound 535] | 5 (Level 5: growth control rate is above 85%) | 5 (Level 5: growth control rate is above 85%) | 5 (Level 5: growth control rate is above 85%) | 5 (Level 5: growth control rate is above 85%) | 5 (Level 5: growth control rate is above 85%) |
| CCOC(=O)OC(C)N(C(=O)c1ccc(C(F)(F)F)c([S+]([O-])CC)c1OC)c1nnc(C)o1 (mixture of isomers) [Compound 422] | 5 (Level 5: growth control rate is above 85%) | 5 (Level 5: growth control rate is above 85%) | 5 (Level 5: growth control rate is above 85%) | 5 (Level 5: growth control rate is above 85%) | 5 (Level 5: growth control rate is above 85%) |
| Cc1nnc(NC(=O)c2ccc(C(F)(F)F)c([S@+]([O-])CCC(F)F)c2F)o1 [Compound 28] | 5 (Level 5: growth control rate is above 85%) | 5 (Level 5: growth control rate is above 85%) | 5 (Level 5: growth control rate is above 85%) | 5 (Level 5: growth control rate is above 85%) | 5 (Level 5: growth control rate is above 85%) |
